Measurements as given in ChEMBL document CHEMBL4425158, “Synthesis, structure-activity relationships and biological evaluation of 4,5,6,7-tetrahydropyrazolopyrazines as metabotropic glutamate receptor 5 negative allosteric modulators” (Bioorg Med Chem Lett, 2016).
≈ marks a conversion by molar mass, not a printed value.

Columns and labels:
[1] = biological target: Metabotropic glutamate receptor 5 (Homo sapiens, UniProt P41594); test: Negative allosteric modulation of human recombinant mGluR5 expressed in HEK293 cells assessed as L-glutamate-induced intracellular calcium mobilization incubated for 20 mins before L-glutamate addition; assay type: functional, cell-based
Chain of Metabotropic glutamate receptor 5 (P41594 whole entry): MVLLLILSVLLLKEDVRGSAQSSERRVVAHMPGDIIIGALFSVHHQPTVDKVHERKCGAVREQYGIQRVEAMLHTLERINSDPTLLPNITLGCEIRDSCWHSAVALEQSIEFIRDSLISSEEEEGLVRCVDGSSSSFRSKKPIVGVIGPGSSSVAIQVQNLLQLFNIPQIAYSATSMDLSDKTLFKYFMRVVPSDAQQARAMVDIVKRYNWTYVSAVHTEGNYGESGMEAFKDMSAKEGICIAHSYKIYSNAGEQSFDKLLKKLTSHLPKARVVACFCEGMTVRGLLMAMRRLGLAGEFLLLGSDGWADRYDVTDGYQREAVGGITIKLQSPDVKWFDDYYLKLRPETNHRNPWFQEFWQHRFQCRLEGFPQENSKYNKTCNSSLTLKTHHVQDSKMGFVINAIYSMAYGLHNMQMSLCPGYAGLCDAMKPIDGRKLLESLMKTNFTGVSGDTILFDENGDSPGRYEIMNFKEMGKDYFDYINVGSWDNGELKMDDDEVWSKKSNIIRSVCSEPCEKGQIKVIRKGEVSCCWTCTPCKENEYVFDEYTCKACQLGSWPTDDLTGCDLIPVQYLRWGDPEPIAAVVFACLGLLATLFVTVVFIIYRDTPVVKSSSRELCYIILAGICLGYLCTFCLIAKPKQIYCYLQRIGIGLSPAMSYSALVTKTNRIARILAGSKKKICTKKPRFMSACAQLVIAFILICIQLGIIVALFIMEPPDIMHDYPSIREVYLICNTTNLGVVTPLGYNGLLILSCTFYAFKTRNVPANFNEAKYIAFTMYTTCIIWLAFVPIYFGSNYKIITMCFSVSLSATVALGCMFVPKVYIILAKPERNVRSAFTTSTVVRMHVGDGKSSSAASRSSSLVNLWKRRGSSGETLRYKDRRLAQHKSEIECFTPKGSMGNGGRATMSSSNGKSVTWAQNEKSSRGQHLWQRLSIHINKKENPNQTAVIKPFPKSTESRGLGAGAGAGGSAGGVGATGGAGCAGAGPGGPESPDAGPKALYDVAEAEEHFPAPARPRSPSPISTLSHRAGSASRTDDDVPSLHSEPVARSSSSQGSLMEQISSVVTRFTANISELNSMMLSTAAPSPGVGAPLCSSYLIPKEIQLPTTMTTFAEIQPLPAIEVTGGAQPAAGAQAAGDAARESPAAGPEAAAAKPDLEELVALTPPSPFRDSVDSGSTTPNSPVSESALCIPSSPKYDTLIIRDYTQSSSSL

Cytochrome P450 2D6 = Cytochrome P450 2D6 (Homo sapiens, UniProt P10635); test: Inhibition of CYP2D6 in human liver microsomes using bufuralol as substrate after 10 mins in presence of NADPH by LC/MS/MS analysis; assay type: ADME
Chain of Cytochrome P450 2D6 (P10635 whole entry): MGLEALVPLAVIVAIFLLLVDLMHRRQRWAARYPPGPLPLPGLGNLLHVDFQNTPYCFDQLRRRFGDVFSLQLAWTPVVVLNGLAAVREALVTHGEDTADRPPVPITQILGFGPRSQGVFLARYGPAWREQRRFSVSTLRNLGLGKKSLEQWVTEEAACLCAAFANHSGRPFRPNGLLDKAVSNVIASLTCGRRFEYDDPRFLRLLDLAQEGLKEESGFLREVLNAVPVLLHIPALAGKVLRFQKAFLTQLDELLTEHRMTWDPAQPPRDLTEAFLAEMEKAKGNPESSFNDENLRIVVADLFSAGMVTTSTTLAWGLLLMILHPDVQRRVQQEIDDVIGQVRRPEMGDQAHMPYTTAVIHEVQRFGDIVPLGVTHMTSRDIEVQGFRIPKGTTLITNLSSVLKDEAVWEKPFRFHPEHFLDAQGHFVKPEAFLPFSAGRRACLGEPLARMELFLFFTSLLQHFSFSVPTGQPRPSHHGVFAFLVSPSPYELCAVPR

Cytochrome P450 1A2 = biological target: T1, Cytochrome P450 1A2 (Homo sapiens, UniProt P05177); test: Inhibition of CYP1A2 in human liver microsomes using phenacetin as substrate after 10 mins in presence of NADPH by LC/MS/MS analysis; assay type: ADME
T1 sequence (P05177 whole entry): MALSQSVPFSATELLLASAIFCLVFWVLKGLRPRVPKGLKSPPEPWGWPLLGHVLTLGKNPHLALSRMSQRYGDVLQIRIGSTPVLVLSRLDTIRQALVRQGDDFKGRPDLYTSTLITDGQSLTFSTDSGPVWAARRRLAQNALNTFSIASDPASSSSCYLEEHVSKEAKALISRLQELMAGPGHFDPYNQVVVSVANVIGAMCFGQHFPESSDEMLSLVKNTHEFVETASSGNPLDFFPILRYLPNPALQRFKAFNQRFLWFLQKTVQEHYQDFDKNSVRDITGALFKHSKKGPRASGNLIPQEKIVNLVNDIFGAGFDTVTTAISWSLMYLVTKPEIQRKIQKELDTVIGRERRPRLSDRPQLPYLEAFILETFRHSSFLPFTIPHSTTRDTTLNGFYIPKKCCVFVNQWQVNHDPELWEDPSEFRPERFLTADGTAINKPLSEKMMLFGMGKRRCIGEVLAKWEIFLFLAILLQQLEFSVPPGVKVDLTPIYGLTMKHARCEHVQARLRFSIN

Cytochrome P450 2C19 = Cytochrome P450 2C19 (Homo sapiens, UniProt P33261); test: Inhibition of CYP2C19 in human liver microsomes using (S)-mephenytoin as substrate after 10 mins in presence of NADPH by LC/MS/MS analysis; assay type: ADME
Chain of Cytochrome P450 2C19 (P33261 whole entry): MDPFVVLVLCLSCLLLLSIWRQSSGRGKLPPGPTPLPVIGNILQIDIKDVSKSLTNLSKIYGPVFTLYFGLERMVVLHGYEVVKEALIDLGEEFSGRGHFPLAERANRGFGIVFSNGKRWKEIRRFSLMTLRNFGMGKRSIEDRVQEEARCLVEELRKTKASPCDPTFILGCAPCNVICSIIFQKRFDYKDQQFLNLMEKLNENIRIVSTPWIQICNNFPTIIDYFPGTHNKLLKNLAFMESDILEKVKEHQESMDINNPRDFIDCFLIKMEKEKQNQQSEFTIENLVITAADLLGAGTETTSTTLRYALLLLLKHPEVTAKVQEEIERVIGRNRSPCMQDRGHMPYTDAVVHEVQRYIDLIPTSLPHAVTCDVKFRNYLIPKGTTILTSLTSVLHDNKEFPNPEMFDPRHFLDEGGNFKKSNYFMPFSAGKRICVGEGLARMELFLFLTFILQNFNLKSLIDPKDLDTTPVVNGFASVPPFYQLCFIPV

Cytochrome P450 2A6 = biological target: T2, Cytochrome P450 2A6 (Homo sapiens, UniProt P11509); test: Inhibition of CYP2A6 in human liver microsomes using coumarin as substrate after 10 mins in presence of NADPH by LC/MS/MS analysis; assay type: ADME
T2 sequence (P11509 whole entry): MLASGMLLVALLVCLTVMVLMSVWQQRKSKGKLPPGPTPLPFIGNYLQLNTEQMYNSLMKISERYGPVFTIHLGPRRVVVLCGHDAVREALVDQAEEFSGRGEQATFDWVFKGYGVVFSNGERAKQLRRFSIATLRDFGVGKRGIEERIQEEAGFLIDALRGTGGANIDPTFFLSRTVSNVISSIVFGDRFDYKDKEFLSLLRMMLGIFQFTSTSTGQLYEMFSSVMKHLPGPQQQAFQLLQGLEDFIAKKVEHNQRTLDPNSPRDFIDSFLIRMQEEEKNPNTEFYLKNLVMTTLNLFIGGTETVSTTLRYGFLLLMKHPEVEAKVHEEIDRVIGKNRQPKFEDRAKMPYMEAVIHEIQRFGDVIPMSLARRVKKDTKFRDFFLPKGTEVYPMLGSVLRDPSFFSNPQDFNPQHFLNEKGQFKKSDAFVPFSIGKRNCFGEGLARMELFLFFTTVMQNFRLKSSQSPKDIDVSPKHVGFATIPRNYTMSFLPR

[2] = Aqueous solubility of the compound at pH 7.4; assay type: physicochemical
Cytochrome P450 2C9 = Cytochrome P450 2C9 (Homo sapiens, UniProt P11712); test: Inhibition of CYP2C9 in human liver microsomes using diclofenac as substrate after 10 mins in presence of NADPH by LC/MS/MS analysis; assay type: ADME
Chain of Cytochrome P450 2C9 (P11712 whole entry): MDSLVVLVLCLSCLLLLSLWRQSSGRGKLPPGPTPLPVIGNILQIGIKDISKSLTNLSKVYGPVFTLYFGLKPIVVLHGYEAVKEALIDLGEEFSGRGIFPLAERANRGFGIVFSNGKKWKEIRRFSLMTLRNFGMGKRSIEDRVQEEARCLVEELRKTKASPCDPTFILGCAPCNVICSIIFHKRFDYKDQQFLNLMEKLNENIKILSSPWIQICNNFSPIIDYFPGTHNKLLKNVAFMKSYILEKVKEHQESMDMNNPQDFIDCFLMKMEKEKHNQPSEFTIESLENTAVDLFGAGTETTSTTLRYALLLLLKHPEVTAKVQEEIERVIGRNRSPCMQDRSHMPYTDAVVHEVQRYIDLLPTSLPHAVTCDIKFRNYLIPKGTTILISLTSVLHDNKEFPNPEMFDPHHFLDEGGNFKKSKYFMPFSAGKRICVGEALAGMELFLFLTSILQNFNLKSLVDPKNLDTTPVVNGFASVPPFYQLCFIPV

[3] = Aqueous solubility of the compound at pH 1.2; assay type: physicochemical
Cytochrome P450 3A4 = Cytochrome P450 3A4 (Homo sapiens, UniProt P08684); test: Inhibition of CYP3A4 in human liver microsomes using midazolam as substrate after 10 mins in presence of NADPH by LC/MS/MS analysis; assay type: ADME
Chain of Cytochrome P450 3A4 (P08684 whole entry): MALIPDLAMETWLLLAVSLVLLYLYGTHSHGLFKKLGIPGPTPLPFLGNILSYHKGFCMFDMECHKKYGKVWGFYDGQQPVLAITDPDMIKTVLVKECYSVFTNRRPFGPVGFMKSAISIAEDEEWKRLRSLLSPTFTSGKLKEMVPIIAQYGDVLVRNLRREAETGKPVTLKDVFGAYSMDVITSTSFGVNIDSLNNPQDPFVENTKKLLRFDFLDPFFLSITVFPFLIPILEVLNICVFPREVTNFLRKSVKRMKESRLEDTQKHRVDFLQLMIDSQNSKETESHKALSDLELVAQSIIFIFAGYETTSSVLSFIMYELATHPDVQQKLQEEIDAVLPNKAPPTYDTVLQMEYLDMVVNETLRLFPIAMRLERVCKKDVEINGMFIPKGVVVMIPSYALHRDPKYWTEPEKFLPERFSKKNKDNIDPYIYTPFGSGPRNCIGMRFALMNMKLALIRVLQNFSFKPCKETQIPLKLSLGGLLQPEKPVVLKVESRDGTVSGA

Cytochrome P450 2C8 = biological target: T3, Cytochrome P450 2C8 (Homo sapiens, UniProt P10632); test: Inhibition of CYP2C8 in human liver microsomes using amodiaquin as substrate after 10 mins in presence of NADPH by LC/MS/MS analysis; assay type: ADME
T3 sequence (P10632 whole entry): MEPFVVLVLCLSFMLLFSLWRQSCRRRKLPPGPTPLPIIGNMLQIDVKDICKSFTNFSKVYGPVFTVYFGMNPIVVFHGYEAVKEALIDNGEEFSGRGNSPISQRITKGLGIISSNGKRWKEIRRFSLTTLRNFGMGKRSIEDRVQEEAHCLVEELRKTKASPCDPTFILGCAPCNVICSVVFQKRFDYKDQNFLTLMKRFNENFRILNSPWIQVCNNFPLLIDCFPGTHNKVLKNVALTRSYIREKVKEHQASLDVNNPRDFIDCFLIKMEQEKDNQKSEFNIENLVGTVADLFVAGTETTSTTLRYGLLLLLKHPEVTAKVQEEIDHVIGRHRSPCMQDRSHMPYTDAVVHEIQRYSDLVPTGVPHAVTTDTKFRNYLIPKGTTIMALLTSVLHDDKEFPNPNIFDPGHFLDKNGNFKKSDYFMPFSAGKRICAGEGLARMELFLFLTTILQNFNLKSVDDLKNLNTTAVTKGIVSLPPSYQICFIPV

[4] = Metabolic stability in rat liver microsomes assessed as compound remaining at 1 uM after 30 mins in presence of NADPH by LC/MS/MS analysis; assay type: ADME, Microsome; conditions: read-out: Stability
[5] = Metabolic stability in human liver microsomes assessed as compound remaining at 1 uM after 30 mins in presence of NADPH by LC/MS/MS analysis; assay type: ADME, Microsome; conditions: read-out: Stability

O=C(c1ccccc1)N1CCn2nc(-c3cccnc3)cc2C1
IC50 [1]: > 10000 nM

O=C(c1ccccc1)N1CCn2nc(-c3ccccn3)cc2C1
IC50 (Cytochrome P450 2D6): > 50000 nM
IC50 (Cytochrome P450 1A2): > 50000 nM
IC50 (Cytochrome P450 2C19): > 50000 nM
IC50 (Cytochrome P450 2A6): > 50000 nM
solubility [2]: > 100 µg/mL
IC50 (Cytochrome P450 2C9): > 50000 nM
IC50 [1]: 235 nM
solubility [3]: > 100 µg/mL
IC50 (Cytochrome P450 3A4): > 50000 nM
IC50 (Cytochrome P450 2C8): > 50000 nM
remaining at 0.5 h, 1 µM [4]: 95%
remaining at 0.5 h, 1 µM [5]: 92%

O=C(c1ccccc1)N1CCn2nc(-c3ccccc3)cc2C1
solubility [2]: 2 µg/mL (≈ 6.59 µM)
IC50 [1]: 127 nM
solubility [3]: 4 µg/mL (≈ 13.2 µM)

O=C(c1ccccc1)N1CCn2nc(-c3ccncc3)cc2C1
IC50 [1]: 1290 nM

O=C(c1cccc(F)c1)N1CCn2nc(-c3ccc(F)cn3)cc2C1
IC50 [1]: 257 nM

O=C(c1ccccc1)N1CCn2nc(-c3ccc(Cl)cn3)cc2C1
IC50 [1]: 201 nM
